How the values were obtained:
[1] = Expert taster comparison with and without Amadori compound, chocolate flavored milk; conditions: 5% sugar, 0.05% carrageenan, expert tasters (5-7)
Experimental: (§1) The following formulations were prepared with and without Amadori compound and tasted by expert tasters (5-7) and compared. The Amadori compound was dosed in the consumable with no additional heating required.

[2] = Expert taster comparison with and without Amadori compound, strawberry flavored yoghurt; conditions: base: 1.7% fat, 4% sugar, strawberry flavor 0.1%, expert tasters (5-7)
Experimental: as §1
Strawberry Flavored Yoghurt

[3] = Expert taster comparison with and without Amadori compound, cheese sauce; conditions: 10 ppm, expert tasters (5-7)
Experimental: as §1
Base: 33.46% Maltodextrin 10DE; 29.00% Starch Ultrasphere 2000; 10.00% Cheddar Cheese (white); 9.00% non-fat milk powder; 6.20% Whey; 5.00% canola shortening powder; 4.25% salt, 40 mesh; 0.35% yeast extract powder; 0.10% citric acid; 0.10% lactic acid; 2.54% cheese flavor.

[4] = Expert taster comparison with and without Amadori compound, almond milk; conditions: 2 ppb; base: commercially available sweetened vanilla almond milk; expert tasters (5-7)
Experimental: as §1

[5] = Expert taster comparison with and without Amadori compound, cream filling; conditions: 10 ppb; base: 66.4% sucrose, 32% palm oil, 0.2% salt, 0.4% vanilla extract, 1% water; expert tasters (5-7)
Experimental: as §1

[6] = Expert taster comparison with and without Amadori compound, vanilla flavored milk; conditions: expert tasters (5-7)
Experimental: as §1

[7] = Expert taster comparison with and without Amadori compound, ice cream; conditions: 10 ppb; base: 14.31% heavy whipping cream, 77.60% whole milk, 8% sucrose, 0.009% vanillin; expert tasters (5-7)
Experimental: as §1

[8] = Expert taster comparison with and without Amadori compound, plain low fat yoghurt; conditions: base: 1.5% fat, 5% sugar, expert tasters (5-7)
Experimental: as §1

## O=C(O)C1CCCN1CC1(O)OCC(O)C(O)C1O (centres unmarked)
[1]; 0.1 ppb, base: 2% milk fat, 2% cocoa powder
  taste/mouthfeel compared with base: creamy, full, richer chocolate, slight waxy, more cocoa impact
[1]; 1 ppb, base: 2% milk fat, 2% cocoa powder
  taste/mouthfeel compared with base: more chocolate linger, more chocolate, more complex, full mouthfeel, sweeter impression, thicker, waxy, slight tingle
[1]; 10 ppm, base: 2% fat milk, 20/cocoa powder
  taste/mouthfeel compared with base: more rich, more body, more real chocolate profile, slight increase in bitterness
[2]; 1 ppb
  taste/mouthfeel compared with base: hardly any effect noticed
[2]; 10 ppb
  taste/mouthfeel compared with base: sweeter, more creamy, richer mouthfeel, more fruity
[3]
  taste/mouthfeel compared with base: denser, cheesier, smooth, saltier, creamier mouthfeel, fresher dairy note, rich, slight metallic and astringent
[4]
  taste/mouthfeel compared with base: more creamy, stronger vanilla flavor, more body, more creamy mouthfeel; sweeter and more salty
[5]
  taste/mouthfeel compared with base: more fatty and creamy, sweeter and more salty, more buttery profile
[6]; 0.1 ppb, base: 2% milk fat, 4% sugar, 0.2% vanilla extract
  taste/mouthfeel compared with base: sweeter linger, more powdery, more fatty body, full and creamy, more dairy impact, creamier mouthfeel, slight waxy mouthfeel
[6]; 1 ppb, base: 2% milk fat, 4% sugar, 0.2% vanilla extract
  taste/mouthfeel compared with base: sweeter, increase fullness, creamier mouthfeel, more dairy, slight waxy mouthfeel
[6]; 20 ppm, base: half full milk, 5% sugar, 0.1% vanillin
  taste/mouthfeel compared with base: slightly fuller, richer than base, fuller like fat, sweeter
[6]; δ ppm, base: 2% fat milk, 4% sugar, 0.15% vanilla flavor
  taste/mouthfeel compared with base: sweeter, more rich creamy, slightly sweeter, juicy, slight metallic and mouth drying
[7]
  taste/mouthfeel compared with base: more creamy, sweeter, slightly more body and mouth round effect, slightly more milk fat taste
[8]; 5 ppm
  taste/mouthfeel compared with base: less sour, sweeter, creamy
[8]; 10 ppm
  taste/mouthfeel compared with base: increase upfront sweet, less sour
[8]; 25 ppm
  taste/mouthfeel compared with base: metallic linger, increase overall and upfront sweet

## O=C(O)[C@H](Cc1c[nH]cn1)NCC(=O)[C@@H](O)[C@H](O)[C@H](O)CO [Fru-His, N-(1-deoxy-D-fructose-1-yl)-L-histidine]
[3]
  taste/mouthfeel compared with base: more cheesy, slight acidic, aged, meaty, tingling, chalky, increased mouthfeel, creamier

## CC[C@H](C)[C@H](NCC(=O)[C@@H](O)[C@H](O)[C@H](O)CO)C(=O)O [Fru-Ileu, N-(1-deoxy-D-fructose-1-yl)-L-isoleucine]
[3]
  taste/mouthfeel compared with base: slight acidic, bitter, creamier, increased saltiness

## CSCC[C@H](NCC(=O)[C@@H](O)[C@H](O)[C@H](O)CO)C(=O)O [Fru-Met, N-(1-deoxy-D-fructose-1-yl)-L-methionine]
[3]
  taste/mouthfeel compared with base: more rich, cheesy, umami, astringent, sharper cheese notes, salty

## O=C(O)C(CO)NCC1(O)OCC(O)C(O)C1O (centres unmarked) [Fru-Ser]
[3]
  taste/mouthfeel compared with base: cheesy, creamy, rich, tingling, metallic, thick, smooth

Source: patent publication US12622448B2 (Givaudan SA, priority 2019, dated 2026)
